Reference: BindingDB's records for doi:10.7270/Q2251GKR (Vanderbilt Screening Center for GPCRs, Ion Channels and …, 2010)

Molecular target: T1, Muscarinic acetylcholine receptor M4 (Rattus norvegicus, UniProt P08485)
T1 sequence (P08485 whole entry): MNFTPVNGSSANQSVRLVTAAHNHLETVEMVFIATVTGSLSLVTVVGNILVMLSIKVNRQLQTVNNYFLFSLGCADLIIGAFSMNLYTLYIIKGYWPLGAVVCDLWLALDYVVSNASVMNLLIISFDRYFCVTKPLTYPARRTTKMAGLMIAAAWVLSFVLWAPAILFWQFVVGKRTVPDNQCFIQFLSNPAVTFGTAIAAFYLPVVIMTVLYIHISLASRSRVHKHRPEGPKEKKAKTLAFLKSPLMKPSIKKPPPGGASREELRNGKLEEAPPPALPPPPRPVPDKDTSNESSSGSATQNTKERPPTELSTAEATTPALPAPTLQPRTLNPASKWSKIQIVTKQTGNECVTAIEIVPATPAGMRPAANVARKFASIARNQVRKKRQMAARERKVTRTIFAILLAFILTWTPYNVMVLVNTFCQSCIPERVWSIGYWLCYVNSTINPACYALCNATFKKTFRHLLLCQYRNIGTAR
Experiment: potentiation of acetylcholine response at rM4 – cell-based, analogs, calcium mobilization, Gqi5, SAR follow-up (AID 1923)

Compound Cc1cc(C)c2c(N)c(C(=O)NCc3ccc4c(c3)OCO4)sc2n1 [3-amino-4,6-dimethyl-N-piperonyl-thieno[2,3-b]pyridine-2-carboxamide] has an EC50 of 369 nM.
